Measurements from article PMC5006944 (Cell, 2016).
pKd: −log10 of the molar value. Blank lines part the entries; values can stand above or below the compound they belong to.

How the values were obtained:
[1] = tested on: GTP-RAS in HeLa and A431 cell lines; test: Active RAS pull-down after EGF stimulation, wild-type RAS cells; format: cell-based; details: serum-starved HeLa and A431 cells, 2 μM
[2] = target: GTP-RAS and CRAF-RBD interaction (Homo sapiens, UniProt P04049); test: In vitro association of GST-RBD with GTP-RAS from EGF-stimulated A431 lysates; format: biochemical; details: GST-RBD pre-incubated with increasing concentrations
GTP-RAS and CRAF-RBD interaction, sequence (P04049 56-131 limits assumed): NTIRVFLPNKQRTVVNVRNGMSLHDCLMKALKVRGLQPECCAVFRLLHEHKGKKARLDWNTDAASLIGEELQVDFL

recombinant Ral-GDS RBD = recombinant Ral-GDS RBD (Homo sapiens, UniProt Q12967); test: DSF and biotin-RGS pull-down, Ral-GDS RBD; format: binding; details: DSF and pull-down with biotin-RGS conjugate
recombinant Ral-GDS RBD, sequence (Q12967 798-885 limits assumed): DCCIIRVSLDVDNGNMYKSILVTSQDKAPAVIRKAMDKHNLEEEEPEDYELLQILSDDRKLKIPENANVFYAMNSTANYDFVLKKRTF

three RAF proteins = test: In vitro RAF kinase assays; format: biochemical
[3] = target: GST-tagged B-RAF RBD (aa 151–230) (Homo sapiens, UniProt P15056); test: Microscale thermophoresis
GST-tagged B-RAF RBD (aa 151–230), sequence (P15056 151-230): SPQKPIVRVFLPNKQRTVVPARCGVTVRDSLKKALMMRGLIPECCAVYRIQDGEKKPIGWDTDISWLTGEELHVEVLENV

[4] = tested on: PanIN lesions (K-RAS^G12D); test: Pdx-cre:Kras^+/LSL G12D mouse model of pancreatic intraepithelial neoplasia; format: in vivo; details: 14 days
[5] = target: kinase domain (KD) of c-RAF (AA 306–648) (Homo sapiens, UniProt P04049); test: Differential scanning fluorimetry; format: binding; details: DSF
kinase domain (KD) of c-RAF (AA 306–648), sequence (P04049 306-648): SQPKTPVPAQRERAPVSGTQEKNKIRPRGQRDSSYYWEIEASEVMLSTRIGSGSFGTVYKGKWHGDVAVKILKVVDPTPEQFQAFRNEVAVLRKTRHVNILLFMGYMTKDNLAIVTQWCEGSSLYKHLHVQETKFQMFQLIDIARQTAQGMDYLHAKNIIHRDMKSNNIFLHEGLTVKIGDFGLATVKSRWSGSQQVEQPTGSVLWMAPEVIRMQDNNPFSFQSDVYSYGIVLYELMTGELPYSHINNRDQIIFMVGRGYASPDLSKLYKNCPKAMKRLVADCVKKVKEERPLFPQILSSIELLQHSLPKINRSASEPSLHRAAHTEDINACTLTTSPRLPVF

[6] = tested on: A549 (K-RAS^G12S) xenograft; test: A549 xenograft tumor growth; details: 100 mg/kg twice daily i.p., 16 days, nude mice
[7] = target: GST-RBD (AA 1–149) of c-RAF (Homo sapiens, UniProt P04049); test: Differential scanning fluorimetry; format: binding; details: DSF
GST-RBD (AA 1–149) of c-RAF, sequence (P04049 1-149): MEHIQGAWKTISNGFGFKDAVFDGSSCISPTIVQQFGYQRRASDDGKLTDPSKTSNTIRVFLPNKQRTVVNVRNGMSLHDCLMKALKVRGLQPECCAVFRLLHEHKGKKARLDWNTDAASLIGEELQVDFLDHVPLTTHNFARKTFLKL

mutant c-RAF RBDs = test: MST binding to mutant c-RAF RBDs; details: V69A
[8] = tested on: MEK and ERK phosphorylation in HeLa and A431 cells; test: MEK and ERK phosphorylation western blot, HeLa and A431 cells; format: cell-based
[9] = tested on: c-RAF^Ser338, MEK, ERK, and AKT phosphorylation; test: Western blot of xenograft tumor extracts; format: in vivo, mouse; details: tumor extracts vs placebo
PLK1 = details: subsequent experiments by us and others; ref Steegmaier et al., 2007; cited from earlier work
[10] = tested on: c-RAF^Ser338 phosphorylation; test: EGF-induced c-RAF^Ser338 phosphorylation in HCT116 cells; format: cell-based, human; details: serum-starved HCT116, EGF 5 min
c-RAF/B-RAF heterodimer = c-RAF/B-RAF heterodimer (Homo sapiens, UniProt P04049+P15056); test: c-RAF/B-RAF co-immunoprecipitation after EGF stimulation; format: cell-based; details: EGF-stimulated HeLa and A431 cells
c-RAF/B-RAF heterodimer, sequence (P04049 whole entry): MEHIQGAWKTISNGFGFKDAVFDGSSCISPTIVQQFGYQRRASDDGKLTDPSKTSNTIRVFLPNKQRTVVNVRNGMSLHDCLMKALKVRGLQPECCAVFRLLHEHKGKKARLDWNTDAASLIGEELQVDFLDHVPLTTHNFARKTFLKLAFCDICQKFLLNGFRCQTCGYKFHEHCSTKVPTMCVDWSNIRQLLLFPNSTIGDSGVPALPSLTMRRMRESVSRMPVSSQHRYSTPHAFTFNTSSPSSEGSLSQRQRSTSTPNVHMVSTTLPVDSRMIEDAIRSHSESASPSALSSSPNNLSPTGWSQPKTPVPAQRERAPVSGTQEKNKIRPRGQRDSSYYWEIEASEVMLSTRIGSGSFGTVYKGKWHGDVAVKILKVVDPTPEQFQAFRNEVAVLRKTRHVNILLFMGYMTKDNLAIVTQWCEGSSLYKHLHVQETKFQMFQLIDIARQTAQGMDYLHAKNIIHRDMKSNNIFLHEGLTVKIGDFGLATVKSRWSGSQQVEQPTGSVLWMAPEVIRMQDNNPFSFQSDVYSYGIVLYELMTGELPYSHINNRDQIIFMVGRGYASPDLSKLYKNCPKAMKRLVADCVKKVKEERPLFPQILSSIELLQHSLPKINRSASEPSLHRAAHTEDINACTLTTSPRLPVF
c-RAF/B-RAF heterodimer, sequence (P15056 whole entry): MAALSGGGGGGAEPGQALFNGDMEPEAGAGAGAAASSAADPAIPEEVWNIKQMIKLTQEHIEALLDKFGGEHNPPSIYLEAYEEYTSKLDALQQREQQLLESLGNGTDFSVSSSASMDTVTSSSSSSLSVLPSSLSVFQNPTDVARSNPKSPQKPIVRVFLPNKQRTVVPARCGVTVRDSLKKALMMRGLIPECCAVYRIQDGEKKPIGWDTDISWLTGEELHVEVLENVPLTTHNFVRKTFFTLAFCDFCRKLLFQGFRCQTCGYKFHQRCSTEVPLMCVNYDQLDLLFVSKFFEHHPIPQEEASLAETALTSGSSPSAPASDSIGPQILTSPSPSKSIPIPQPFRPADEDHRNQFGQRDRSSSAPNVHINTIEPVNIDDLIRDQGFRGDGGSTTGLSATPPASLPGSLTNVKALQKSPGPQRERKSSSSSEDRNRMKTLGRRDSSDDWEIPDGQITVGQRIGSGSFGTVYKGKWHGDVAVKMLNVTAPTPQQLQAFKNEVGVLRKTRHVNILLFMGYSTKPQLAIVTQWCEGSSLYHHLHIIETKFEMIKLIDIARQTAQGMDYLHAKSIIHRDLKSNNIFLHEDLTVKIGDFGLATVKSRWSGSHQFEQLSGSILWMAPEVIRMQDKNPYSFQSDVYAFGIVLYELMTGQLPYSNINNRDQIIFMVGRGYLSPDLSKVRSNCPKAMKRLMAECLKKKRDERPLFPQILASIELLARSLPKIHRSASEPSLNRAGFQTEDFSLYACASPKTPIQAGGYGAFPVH

[11] = tested on: c-RAF kinase activity in HeLa and A431 cells; test: RAF kinase activity of c-RAF immunoprecipitates from EGF-stimulated cells; format: cell-based; details: pre-treatment of cells; MEK substrate
[12] = target: PLK1 association with c-RAF^Ser338 (Homo sapiens, UniProt P04049); test: PLK1 immunoprecipitation, associated c-RAF^Ser338 in HCT116 cells; format: cell-based; details: HCT116, anti-PLK1 immunoprecipitation
PLK1 association with c-RAF^Ser338, sequence (P04049 whole entry): as the sequence (P04049 whole entry) above

[13] = tested on: HCT116 (K-RAS^G13D) xenograft; test: HCT116 xenograft tumor growth; details: 100 mg/kg twice daily i.p., 16 days, nude mice
[14] = tested on: c-RAF^Ser338 phosphorylation; test: c-RAF^Ser338 phosphorylation in synchronized HCT116 cells entering mitosis; format: cell-based, human; details: HCT116, released from double thymidine block
[15] = tested on: HA-tagged mutant N-RAS G12D GTP-RAS in HeLa cells; test: Active RAS pull-down, HeLa cells expressing mutant N-RAS G12D; format: cell-based; details: pre-incubation
[16] = tested on: MDS patients with monosomy 7 and trisomy 8; details: phase III, MDS with monosomy 7 and trisomy 8; ref Garcia-Manero et al., 2016; cited from earlier work
[17] = tested on: MEK and ERK activation in N-RAS (G12D)-expressing HeLa, HCT-116 and A549 cells; test: MEK and ERK activation western blot, mutant RAS cells; format: cell-based
[18] = target: GST-tagged c-RAF RBD (aa 1–149) (Homo sapiens, UniProt P04049); test: Microscale thermophoresis
GST-tagged c-RAF RBD (aa 1–149), sequence (P04049 1-149): as the sequence (P04049 1-149) above

SMILES: COc1cc(OC)c(/C=C/S(=O)(=O)Cc2ccc(OC)c(NCC(=O)O)c2)c(OC)c1 [RGS, rigosertib]
GTP-RAS pulled down by GST-RBD after EGF stimulation [1]: very little or no GTP-RAS could be precipitated | association of GST-RBD with activated RAS [2]: inhibition of its association with activated RAS in a concentration-dependent manner | binding to Ral-GDS RBD (recombinant Ral-GDS RBD): binds to recombinant Ral-GDS RBD, in a concentration-dependent manner | kinase activity of the three RAF proteins in in vitro assays (three RAF proteins): does not inhibit | pKd [3]: 9.15 | decrease in number of PanIN 1B, 2, and 3 grade tumors ([4]; 200 mg/kg twice daily i.p.): statistically significant | number of pancreatic lesions, less than placebo-treated group ([4]; 200 mg/kg twice daily i.p.): ~ 3 fold | cleaved caspase-3-positive cells in PanIN lesions, greater than control ([4]; 200 mg/kg twice daily): ~4 fold | phosphorylated ERK and AKT^Ser473 in PanINs ([4]; immunohistochemistry, 200 mg/kg twice daily): markedly decreased levels | interaction with c-RAF kinase domain (thermal shift) [5]: did not interact | tumor growth [6]: dramatically decreased tumor growth | interaction with c-RAF RBD (change in Tm) [7]: bound to RGS | binding affinity to c-RAF RBD mutants with reduced RAS binding (mutant c-RAF RBDs; mutants K65A, V70A, and V88A, increased Kd values in MST): reduced binding affinities | binding to c-RAF RBD mutants that abolished RAS binding (mutant c-RAF RBDs; mutations T57A, R67A, L62A, V69G, and T68A): disrupted binding | phosphorylation status of MEK and ERK [8]: reduction in MEK and ERK phosphorylation | c-RAF^Ser338, MEK, ERK, and AKT phosphorylation in tumors [9]: dramatically reduced | PLK1 kinase activity (PLK1): does not directly inhibit | EGF-induced c-RAF^Ser338 phosphorylation [10]: completely inhibited | c-RAF/B-RAF heterodimer formation (c-RAF/B-RAF heterodimer): nearly complete inhibition | EGF-induced activation of RAF kinase activity [11]: inhibits EGF-induced activation of RAF kinase activity | association of PLK1 with c-RAF^Ser338 [12]: little or no association | tumor growth [13]: dramatically decreased tumor growth | reduction of c-RAF^Ser338 phosphorylation [14]: 90% | levels of mutant GTP-RAS bound to GST-RBD [15]: no effect on the levels of GTP-RAS | hazard ratio for survival [16]: 0.25–0.30 | MEK and ERK activation [17]: inhibits MEK and ERK activation equally well | pKd [18]: 9.74

SMILES: COC(=O)Nc1nc2ccc(C(=O)c3cccs3)cc2[nH]1 [nocadazole, nocodazole, reference compound]
association of PLK1 with c-RAF^Ser338 [12]: strong association

interaction with c-RAF kinase domain (thermal shift) [5]: strong thermal shift | interaction with c-RAF RBD (change in Tm) [7]: not with the RBD | c-RAF/B-RAF heterodimer formation (c-RAF/B-RAF heterodimer): enhanced the association
SMILES: CCCS(=O)(=O)Nc1ccc(F)c(C(=O)c2c[nH]c3ncc(-c4ccc(Cl)cc4)cc23)c1F [PLX4032, vemurafenib, reference compound]
GTP-RAS pulled down by GST-RBD after EGF stimulation [1]: GTP-RAS could readily be pulled down | phosphorylation status of MEK and ERK [8]: a small increase or no change | EGF-induced c-RAF^Ser338 phosphorylation [10]: little or no effect | EGF-induced activation of RAF kinase activity [11]: enhancement
